# Assay results: patent US8410161B2, “Thioxanthone ring system derivatives” (National Defense Medical Center, priority 2010, dated 2013)
# Tests used:
# K562 = experiment: NCI in vitro DTP human cell line screen, K562; format: cell-based; details: Leukemia, 1.00E−5 Molar
# Method: (§1) Then, a cell toxicity assay of the cancer lines made by National Cancer Institute will be discussed as follows. The cell toxicity assay is performed by choosing ten compounds (existing certification numbers) from the 59 compounds disclosed in the present invention first.
# A control cell lines = experiment: MTT assay, A control cell lines (lung cancer cell); format: cell-based
# Text: Please refer to Table 1 and FIGS. 4A-4C. According to a MTT assay (Table 1), various cell viabilities of the A control cell lines can be obtained and illustrated in FIG. 4A while the compounds No. 2˜30 are used to treat A control cell lines, wherein A control cell lines are lung cancer cell.
# SNB-75 = experiment: NCI in vitro DTP human cell line screen, SNB-75; format: cell-based; details: CNS Cancer, 1.00E−5 Molar
# Method: as §1
# BT-549 = experiment: NCI in vitro DTP human cell line screen, BT-549; format: cell-based; details: Breast Cancer, 1.00E−5 Molar
# Method: as §1
# RXF 393 = experiment: NCI in vitro DTP human cell line screen, RXF 393; format: cell-based; details: Renal Cancer, 1.00E−5 Molar
# Method: as §1
# NCI-H322M = experiment: NCI in vitro DTP human cell line screen, NCI-H322M; format: cell-based; details: Non-Small Cell Lung Cancer, 1.00E−5 Molar
# Method: as §1
# SK-MEL-28 = experiment: NCI in vitro DTP human cell line screen, SK-MEL-28; format: cell-based; details: Melanoma, 1.00E−5 Molar
# Method: as §1
# TK-10 = experiment: NCI in vitro DTP human cell line screen, TK-10; format: cell-based; details: Renal Cancer, 1.00E−5 Molar
# Method: as §1
# UACC-257 = experiment: NCI in vitro DTP human cell line screen, UACC-257; format: cell-based; details: Melanoma, 1.00E−5 Molar
# Method: as §1
# SR = experiment: NCI in vitro DTP human cell line screen, SR; format: cell-based; details: Leukemia, 1.00E−5 Molar
# Method: as §1
# UO-31 = experiment: NCI in vitro DTP human cell line screen, UO-31; format: cell-based; details: Renal Cancer, 1.00E−5 Molar
# Method: as §1
# MDA-MB-435 = experiment: NCI in vitro DTP human cell line screen, MDA-MB-435; format: cell-based; details: Melanoma, 1.00E−5 Molar
# Method: as §1
# HL-60(TB) = experiment: NCI in vitro DTP human cell line screen, HL-60(TB); format: cell-based; details: Leukemia, 1.00E−5 Molar
# Method: as §1
# NCI-H23 = experiment: NCI in vitro DTP human cell line screen, NCI-H23; format: cell-based; details: Non-Small Cell Lung Cancer, 1.00E−5 Molar
# Method: as §1
# SF-295 = experiment: NCI in vitro DTP human cell line screen, SF-295; format: cell-based; details: CNS Cancer, 1.00E−5 Molar
# Method: as §1
# PC-3 = experiment: NCI in vitro DTP human cell line screen, PC-3; format: cell-based; details: Prostate Cancer, 1.00E−5 Molar
# Method: as §1
# 786-0 = experiment: NCI in vitro DTP human cell line screen, 786-0; format: cell-based; details: Renal Cancer, 1.00E−5 Molar
# Method: as §1
# [1] = MTT assay, HEL299 fibroblast; format: cell-based; details: human
# Text: Please refer to FIG. 4C, various cell viabilities of the HEL299 cell lines can be obtained through the MTT assay while the compounds No. 1˜30 are used to treat HEL299 cell lines, wherein HEL299 cell lines are fibroblast.
# HCT-15 = experiment: NCI in vitro DTP human cell line screen, HCT-15; format: cell-based; details: Colon Cancer, 1.00E−5 Molar
# Method: as §1
# OVCAR-4 = experiment: NCI in vitro DTP human cell line screen, OVCAR-4; format: cell-based; details: Ovarian Cancer, 1.00E−5 Molar
# Method: as §1
# SK-MEL-5 = experiment: NCI in vitro DTP human cell line screen, SK-MEL-5; format: cell-based; details: Melanoma, 1.00E−5 Molar
# Method: as §1
# OVCAR-5 = experiment: NCI in vitro DTP human cell line screen, OVCAR-5; format: cell-based; details: Ovarian Cancer, 1.00E−5 Molar
# Method: as §1
# A3 cell lines = experiment: MTT assay, A3 cell lines (lung cancer stem cell); format: cell-based
# Text: Please to FIG. 4B, various cell viabilities of the A3 cell lines can be obtained through the MTT assay and illustrated in FIG. 4B while the compounds No. 1˜30 are used to treat A3 cell lines, wherein A3 cell lines are lung cancer stem cell.
# EKVX = experiment: NCI in vitro DTP human cell line screen, EKVX; format: cell-based; details: Non-Small Cell Lung Cancer, 1.00E−5 Molar
# Method: as §1
# RPMI-8226 = experiment: NCI in vitro DTP human cell line screen, RPMI-8226; format: cell-based; details: Leukemia, 1.00E−5 Molar
# Method: as §1
# NCI-H460 = experiment: NCI in vitro DTP human cell line screen, NCI-H460; format: cell-based; details: Non-Small Cell Lung Cancer, 1.00E−5 Molar
# Method: as §1
# MALME-3M = experiment: NCI in vitro DTP human cell line screen, MALME-3M; format: cell-based; details: Melanoma, 1.00E−5 Molar
# Method: as §1
# KM12 = experiment: NCI in vitro DTP human cell line screen, KM12; format: cell-based; details: Colon Cancer, 1.00E−5 Molar
# Method: as §1
# SK-OV-3 = experiment: NCI in vitro DTP human cell line screen, SK-OV-3; format: cell-based; details: Ovarian Cancer, 1.00E−5 Molar
# Method: as §1
# HS 578-T = experiment: NCI in vitro DTP human cell line screen, HS 578-T; format: cell-based; details: Breast Cancer, 1.00E−5 Molar
# Method: as §1
# T-47D = experiment: NCI in vitro DTP human cell line screen, T-47D; format: cell-based; details: Breast Cancer, 1.00E−5 Molar
# Method: as §1
# U251 = experiment: NCI in vitro DTP human cell line screen, U251; format: cell-based; details: CNS Cancer, 1.00E−5 Molar
# Method: as §1
# NCI/ADR-RES = experiment: NCI in vitro DTP human cell line screen, NCI/ADR-RES; format: cell-based; details: Ovarian Cancer, 1.00E−5 Molar
# Method: as §1
# MDA-MB-468 = experiment: NCI in vitro DTP human cell line screen, MDA-MB-468; format: cell-based; details: Breast Cancer, 1.00E−5 Molar
# Method: as §1
# OVCAR-3 = experiment: NCI in vitro DTP human cell line screen, OVCAR-3; format: cell-based; details: Ovarian Cancer, 1.00E−5 Molar
# Method: as §1
# IGROV1 = experiment: NCI in vitro DTP human cell line screen, IGROV1; format: cell-based; details: Ovarian Cancer, 1.00E−5 Molar
# Method: as §1
# SF-539 = experiment: NCI in vitro DTP human cell line screen, SF-539; format: cell-based; details: CNS Cancer, 1.00E−5 Molar
# Method: as §1
# LOX IMVI = experiment: NCI in vitro DTP human cell line screen, LOX IMVI; format: cell-based; details: Melanoma, 1.00E−5 Molar
# Method: as §1
# SF-268 = experiment: NCI in vitro DTP human cell line screen, SF-268; format: cell-based; details: CNS Cancer, 1.00E−5 Molar
# Method: as §1
# HCT-116 = experiment: NCI in vitro DTP human cell line screen, HCT-116; format: cell-based; details: Colon Cancer, 1.00E−5 Molar
# Method: as §1
# 60 cancer lines = experiment: NCI cell toxicity assay of 60 cancer lines, whole panel summary; format: cell-based, human; details: mean over all cell lines; 1.00E−5 Molar
# Method: as §1
# DU145 = experiment: NCI in vitro DTP human cell line screen, DU145; format: cell-based; details: Prostate Cancer, 1.00E−5 Molar
# Method: as §1
# NCI-H522 = experiment: NCI in vitro DTP human cell line screen, NCI-H522; format: cell-based; details: Non-Small Cell Lung Cancer, 1.00E−5 Molar
# Method: as §1
# MCF7 = experiment: NCI in vitro DTP human cell line screen, MCF7; format: cell-based; details: Breast Cancer, 1.00E−5 Molar
# Method: as §1
# MOLT-4 = experiment: NCI in vitro DTP human cell line screen, MOLT-4; format: cell-based; details: Leukemia, 1.00E−5 Molar
# Method: as §1
# HCC-2998 = experiment: NCI in vitro DTP human cell line screen, HCC-2998; format: cell-based; details: Colon Cancer, 1.00E−5 Molar
# Method: as §1
# OVCAR-8 = experiment: NCI in vitro DTP human cell line screen, OVCAR-8; format: cell-based; details: Ovarian Cancer, 1.00E−5 Molar
# Method: as §1
# SK-MEL-2 = experiment: NCI in vitro DTP human cell line screen, SK-MEL-2; format: cell-based; details: Melanoma, 1.00E−5 Molar
# Method: as §1
# ACHN = experiment: NCI in vitro DTP human cell line screen, ACHN; format: cell-based; details: Renal Cancer, 1.00E−5 Molar
# Method: as §1
# NCI-H226 = experiment: NCI in vitro DTP human cell line screen, NCI-H226; format: cell-based; details: Non-Small Cell Lung Cancer, 1.00E−5 Molar
# Method: as §1
# SW-620 = experiment: NCI in vitro DTP human cell line screen, SW-620; format: cell-based; details: Colon Cancer, 1.00E−5 Molar
# Method: as §1
# M14 = experiment: NCI in vitro DTP human cell line screen, M14; format: cell-based; details: Melanoma, 1.00E−5 Molar
# Method: as §1
# COLO 205 = experiment: NCI in vitro DTP human cell line screen, COLO 205; format: cell-based; details: Colon Cancer, 1.00E−5 Molar
# Method: as §1
# CAKI-1 = experiment: NCI in vitro DTP human cell line screen, CAKI-1; format: cell-based; details: Renal Cancer, 1.00E−5 Molar
# Method: as §1
# HT29 = experiment: NCI in vitro DTP human cell line screen, HT29; format: cell-based; details: Colon Cancer, 1.00E−5 Molar
# Method: as §1
smiles,measurement,setting,value
"COc1cccc(Sc2ccc3c(=O)c4ccccc4sc3c2Cl)c1 [No. 16, 4-Chloro-3-(3-methoxylphenylthio)-9H-thioxanthen-9-one]",Growth Percent,K562,97.79%
same,cell viabilities of A control cell lines (MTT assay),A control cell lines,91.8 ± 3.07%
same,Growth Percent,SNB-75,86.86%
same,Growth Percent,BT-549,112.48%
same,Growth Percent,RXF 393,112.67%
same,Growth Percent,NCI-H322M,118.28%
same,Growth Percent,SK-MEL-28,109.16%
same,Growth Percent,TK-10,95.23%
same,Growth Percent,UACC-257,89.21%
same,Growth Percent,SR,99.21%
same,Growth Percent,UO-31,98.31%
same,Growth Percent,MDA-MB-435,100.32%
same,Growth Percent,HL-60(TB),115.43%
same,Growth Percent,NCI-H23,92.69%
same,Growth Percent,SF-295,108.18%
same,Growth Percent,PC-3,98.58%
same,Growth Percent,786-0,107.97%
same,viability,[1],90.6 ± 11.5%
same,Growth Percent,HCT-15,94.87%
same,Growth Percent,OVCAR-4,99.88%
same,Growth Percent,SK-MEL-5,96.73%
same,Growth Percent,OVCAR-5,94.14%
same,cell viabilities of A3 cell lines (MTT assay),A3 cell lines,90.0 ± 1.24%
same,Growth Percent,EKVX,96.56%
same,Growth Percent,RPMI-8226,99.57%
same,Growth Percent,NCI-H460,108.81%
same,Growth Percent,MALME-3M,94.91%
same,Growth Percent,KM12,114.13%
same,Growth Percent,SK-OV-3,104.91%
same,Growth Percent,HS 578-T,103.73%
same,Growth Percent,T-47D,92.09%
same,Growth Percent,U251,93.76%
same,Growth Percent,NCI/ADR-RES,102.83%
same,Growth Percent,MDA-MB-468,104.49%
same,Growth Percent,OVCAR-3,113.99%
same,Growth Percent,IGROV1,108.37%
same,Growth Percent,SF-539,100.06%
same,Growth Percent,LOX IMVI,93.53%
same,Growth Percent,SF-268,104.10%
same,Growth Percent,HCT-116,101.88%
same,"Growth Percent, Mean",60 cancer lines,101.65%
same,Growth Percent,DU145,115.18%
same,Growth Percent,NCI-H522,86.09%
same,Growth Percent,MCF7,88.94%
same,Growth Percent,MOLT-4,111.47%
same,Growth Percent,HCC-2998,103.45%
same,Growth Percent,OVCAR-8,94.29%
same,Growth Percent,SK-MEL-2,97.07%
same,Growth Percent,ACHN,103.08%
same,Growth Percent,NCI-H226,95.11%
same,Growth Percent,SW-620,106.14%
same,Growth Percent,M14,111.90%
same,Growth Percent,COLO 205,113.53%
same,Growth Percent,CAKI-1,101.23%
same,Growth Percent,HT29,91.02%
